{"source": "patent US10154991B2", "about": "“Anesthetic compounds and related methods of use” (priority 2012, dated 2018)", "key": {"[1]": {"system": "ICR mice", "test": "In vivo sedative/hypnotic testing, IV bolus, mice", "parameters": "species or system mouse", "conditions": "mice", "experimental": "Animals were housed in a dedicated room at the vivarium of VivoPath Inc., located at Redstone Center, 55 Union Street, Worcester, Mass. Housing and care was as specified in the USDA Animal Welfare Act (9 CFR, Parts 1, 2, and 3) and as described in the Guide for the Care and Use of Laboratory Animals from the National Research Council. Environmental conditions of housing rooms are set at the following ranges: temperature: 70±7° F. (22±4° C.), humidity: 50±20%, light cycle: 12-hour light/12-hour dark cycle—lights on at 7 am and off at 7 pm., air changes: ten or more air changes per hour with 100% fresh air. The animals' body weights were measured prior to the first dose on each experimental day.\nAdult ICR mice (20-30 g) were purchased from Harlan (South Easton, Mass.). Drugs were administered as intravenous bolus injection in a tail vein.\nDrugs were prepared in either dimethylsulfoxide/saline or saline vehicle or hydroxypropyl-β-cyclodextrin (20% in water, pH 7.0) solution and were administered as an intravenous bolus injection. Animals received 1-4 doses of drug(s) during an experimental day, either ascending doses or different drugs. Doses were administered at intervals equal to the longer of 1 h or 10-times the duration of apparent sedative/hypnotic effects from the previous dose. The sedative/hypnotic properties of the drugs were evaluated by observation of the rats, ranging from mild excitation, mild sedation apparent due to reduced activity, and moderate sedation to hypnosis reflected by loss of righting reflex (LORR, the ability to place rear and hind legs under the body, as well as attenuation/loss of nociceptive reflexes)."}, "[2]": {"system": "rats", "test": "Anesthesia (LORR) in rats by IV bolus and continuous infusion", "assay_type": "in vivo, rat", "experimental": "Rats were monitored for anesthesia as assessed by loss of righting reflex (LORR) and the subsequent time to recovery from LORR. Bolus doses of 1.0 mg/kg and greater induced dose-dependent anesthesia. The minimum effective bolus anesthetic dose in rats was approximately 1 mg/kg based on LORR observations. Time to recovery from LORR was dose-dependent.\nCyclopropyl-MOC-metomidate anesthesia in rats by continuous infusion without a bolus induction dose was examined in this study. An infusion of […] induced anesthesia after approximately 3 minutes as measured by LORR. Recovery of righting reflex took approximately 4 minutes following infusion discontinuation whether the infusion was conducted for 5 or 120 minutes.\nCyclopropyl-MOC-metomidate continuous infusion studies were conducted to determine the minimum effective infusion dose required to induce anesthesia. […] When stable anesthesia was observed after 30 minutes of infusion, the infusion rate was reduced to 0.8 mg/kg/min and then to 0.6 mg/kg/min and 0.4 mg/kg/min at 30-minute intervals. Anesthesia and LORR was maintained in all rats at 0.6 mg/kg/min. […] In one rat, the infusion at 0.4 mg/kg/min was discontinued after 7 minutes due to inadequate the anesthesia. The other two rats received the full 30-minute infusion at […] with no further change. Rats recovered from LORR and resumed normal behavior within 2-6 minutes of stopping the infusion. Based on these observations, the minimum effective infusion dose rate required to maintain anesthesia was determined to be approximately 0.5 mg/kg/min. An independent assessment of “minimal immobilizing infusion rate” of cyclopropyl-MOC-metomidate in rats yielded a value of 0.89±0.18 mg/kg/min."}, "[3]": {"system": "GABAA receptor channel", "test": "radioligand binding to the GABAA receptor channel", "conditions": "10 μM"}, "[4]": {"system": "beagle dogs", "experimental": "A pilot study was conducted in dogs to assess anesthesia induced by cyclopropyl-MOC-metomidate continuous infusion without a bolus induction dosing. Two dogs received cyclopropyl-MOC-metomidate as a 1 mg/kg/min IV infusion without prior bolus administration.\nAnesthesia induction was determined using the methods described above.\nEtomidate was administered to dogs at IV bolus doses ranging from 0.25 to 2 mg/kg. Anesthesia in the dogs was measured as described above. […] The bolus dose of 2 mg/kg was adopted to induce anesthesia prior to subsequent continuous infusions.\nPropofol was administered to dogs as an IV bolus dose of 5 mg/kg to induce anesthesia followed by a continuous infusion at 0.4 mg/kg/min."}, "[5]": {"system": "adrenal cortisol production", "experimental": "Dexamethasone (0.01 mg/kg) was administered two hours before the first administration of ACTH and re-administered every 2 hours to maintain suppression. Dexamethasone pretreatment suppresses the hypothalamo-hypophyseal axis to prevent endogenous ACTH release and subsequent adrenocortical steroid secretion. […] Synthetic ACTH (Synacthen, 250 μg) was then administered at times after test substance administration to evaluate the effects of the test substance on the release of the adrenal steroid, cortisol.\nAll study methods described for Study 1 were repeated, except the ACTH administration at the end of infusion was omitted."}, "[6]": {"test": "Pharmacokinetics in dogs, IV bolus and bolus plus infusion", "assay_type": "in vivo, dog"}, "[7]": {"test": "Pharmacokinetics in rats, IV bolus and bolus plus infusion"}, "[8]": {"system": "rats", "test": "loss of righting reflexes (LORR) assay after IV bolus", "procedure": "Adult male Sprague-Dawley rats (230-350 gm) were purchased from Charles River Laboratories (Wilmington, Mass.) and housed in the Massachusetts General Hospital Center for Comparative Medicine animal care facility. All drugs were administered through a femoral venous catheter pre-implanted by the vendor prior to animal delivery to our animal care facility.\nImmediately after injection, rats were turned supine. […] A stopwatch was used to measure the duration of LORR, which was defined as the time from drug injection until the animal spontaneously righted itself."}, "[9]": {"test": "in vivo", "conditions": "rat"}, "[10]": {"conditions": "dogs, 4 mg/kg bolus or bolus plus 0.5 mg/kg/min for 30 or 120 minutes"}, "[11]": {"conditions": "bolus and continuous infusion, listed as cyclopropyl-MOC-metomidate"}}, "note": "“And” between values parts separate entries of the source, which are not always exact repeats. Identical values can stand only once."}
{"compound": "COC(=O)C1(OC(=O)c2cncn2[C@H](C)c2ccccc2)CC1", "note": "[Cyclopropyl- methoxycarbonyl metomidate, cyclopropyl-methoxycarbonyl metomidate]", "values": [{"measurement": "slope of duration of LORR vs logarithm of dose", "setting": "[1]", "value": "approximately 7"}, {"measurement": "minimum effective infusion dose rate to maintain anesthesia", "setting": "[2]", "value": "approximately 0.5 mg/kg/min"}, {"measurement": "recovery from LORR and normal behavior after stopping the infusion", "setting": "[2]; 4 mg/kg bolus then 1 to 0.4 mg/kg/min step-down infusion", "value": "2 to 6", "unit": "min"}, {"measurement": "minimum effective bolus anesthetic dose", "setting": "[2]; IV bolus, LORR", "value": "approximately 1 mg/kg"}, {"measurement": "duration of anesthesia and LORR", "setting": "[2]; bolus dose of 4 mg/kg", "value": "3 to 8", "unit": "min"}, {"measurement": "minimal immobilizing infusion rate", "setting": "[2]; independent assessment", "value": "0.89 ± 0.18", "unit": "mg/kg/min"}, {"measurement": "recovery of righting reflex after infusion discontinuation", "setting": "[2]; infusion for 5 or 120 minutes", "value": "approximately 4 minutes"}, {"measurement": "time to induction of anesthesia (LORR)", "setting": "[2]; infusion of 4 mg/kg without bolus", "value": "approximately 3 minutes"}, {"measurement": "effect on binding of [3H]-flunitrazepam", "setting": "[3]", "value": "no effect"}, {"measurement": "effect on binding of [3H]-muscimol", "setting": "[3]", "value": "no effect"}, {"measurement": "minimum effective continuous infusion dose rate (infusion MED)", "setting": "[4]; dogs", "value": "approximately 0.5 mg/kg/min"}, {"measurement": "emergence from anesthesia", "setting": "[4]; [10]", "value": "approximately 5 minutes"}, {"measurement": "recovery of apparently normal behavior", "setting": "[4]; [10]", "value": "10 to 12", "unit": "min"}, {"measurement": "minimally effective anesthetic dose (MED)", "setting": "[4]; dogs, IV bolus", "value": "approximately 1 mg/kg"}, {"measurement": "duration of anesthesia", "setting": "[4]; dogs, bolus dose of 3 or 4 mg/kg", "value": "3 to 6", "unit": "min"}, {"measurement": "context dependence of recovery from anesthesia", "setting": "[4]; dogs, bolus vs 30- or 120-minute infusion", "value": "context-independent"}, {"measurement": "anesthesia onset after initiation of infusion", "setting": "[4]; two dogs, 1 mg/kg/min IV infusion without bolus", "value": "2.5 to 4.0", "unit": "min"}, {"measurement": "ACTH-induced plasma cortisol response", "setting": "[5]; Study 1, dogs, after 120-minute infusion", "value": "cortisol response to the first ACTH stimulus was inhibited, but the response to the second and third ACTH stimuli at 90 and 180 minute post-infusion were robust"}, {"measurement": "return of normal adrenal responsiveness after cessation of infusion", "setting": "[5]; dogs", "value": "1.5 to 3", "unit": "h"}, {"measurement": "first-phase decline of levels", "setting": "[6]; IV bolus 0.25-12 mg/kg, first 5-10 minutes", "value": "> 10", "unit": "fold"}, {"measurement": "venous blood concentration when sedated/anesthetized", "setting": "[6]; [11]", "value": "> 250 ng/mL and > 0.8 μM"}, {"measurement": "concentration at 24 h", "setting": "[6]; both sexes, dog, in vivo, IV bolus, read-out: level in 24-hour PK samples (below level of quantification)", "value": "< 0.1", "unit": "ng/mL"}, {"measurement": "half-life", "setting": "[6]; both sexes, dog, in vivo, IV bolus, read-out: secondary terminal elimination half-life", "value": "5 to 10", "unit": "min"}, {"measurement": "half-life", "setting": "[6]; dog, in vivo, read-out: half-life of secondary phase of decline after infusion", "value": "~20", "unit": "min"}, {"measurement": "decline of levels after discontinuation of infusion", "setting": "[6]; first 10-30 minutes after infusion", "value": "~50", "unit": "fold"}, {"measurement": "first-phase decline of levels", "setting": "[7]; IV bolus 4-16 mg/kg, first 5 minutes", "value": "> 10", "unit": "fold"}, {"measurement": "venous blood concentration when sedated/anesthetized", "setting": "[7]; [11]", "value": "> 250 ng/mL and > 0.8 μM"}, {"measurement": "decline of levels after discontinuation of infusion", "setting": "[7]; first 30 minutes after 60-minute infusion", "value": "~50", "unit": "fold"}, {"measurement": "ED50", "setting": "[8]; Rattus norvegicus, iv, read-out: ED50 ± SD", "value": "0.69 ± 0.04", "unit": "mg/kg"}, {"measurement": "hypnotic potency compared with methoxycarbonyl etomidate and etomidate", "setting": "[8]; rat, in vivo", "value": "nearly an order of magnitude higher than that of methoxycarbonyl etomidate and similar to that of etomidate"}, {"measurement": "in vivo duration of action compared with methoxycarbonyl etomidate and etomidate", "setting": "[8]; rat, in vivo", "value": "intermediate between those of methoxycarbonyl etomidate and etomidate"}, {"measurement": "concentration at 24 h", "setting": "[9]; both, iv", "value": "< 0.1", "unit": "ng/mL"}, {"measurement": "half-life", "setting": "[9]; both, iv", "value": "~10", "unit": "min"}, {"measurement": "half-life", "setting": "[9]", "value": "~20", "unit": "min"}]}
